The values below come from patent publication US20050019386A1 (priority 2001, published 2005).

Assay [1] relates to ovarian carcinoma (human) on a nude mouse. Description: Oral application, tumour mass of human ovarian carcinoma on nude mouse. Type of assay: in vivo. The note with it: oral form of administration, Taxol 50 mg bolus.
For assay [2], the system named is two human glioblastoma in a nude model. The note with it: free form, 12.5 mg/kg/4 days; cited from earlier work.

SMILES strings stand for the structures.

For the molecule `CC(=O)O[C@H]1C(=O)[C@@]2(C)[C@H]([C@H](OC(=O)c3ccccc3)[C@]3(O)C[C@H](OC(=O)[C@H](O)[C@@H](NC(=O)c4ccccc4)c4ccccc4)C(C)=C1C3(C)C)[C@]1(OC(C)=O)CO[C@@H]1C[C@@H]2O` [unencapsulated taxol, paclitaxel], the “effectivity determined on the basis of the tumour mass” value in assay [1] is reported as “hardly being reduced”. The “growth of the tumour” value in assay [2] is recorded as “significant reduction of the growth of the tumour”.
